Tested on: spike mutant (ΔS) SARS-CoV-2 strain (EPI_ISL_578177)
Assay type: cell-based

CC(=O)N[C@@H](CS)C(=O)O [Acetylcysteine, acetylcysteine]
viral inhibition (CPE, optical and Neutral Red cell staining): no viral inhibition

— patent US20230241188A1 (priority 2020, published 2023)
